Measured values published in publication PMC6530361, “Anti-tumor Efficacy Assessment of the Sigma Receptor Pan Modulator RC-106. A Promising Therapeutic Tool for Pancreatic Cancer” (Frontiers in Pharmacology, 2019).

Key:
[1] = tested on: Panc-1, Capan-1, and Capan-2; experiment: MTS assay, all cell lines tested; type: cell-based; details: 24, 48, and 72 h exposure
Method: Pancreatic adenocarcinoma Panc-1, Capan-1, and Capan-2, cell lines were purchased by the ATCC. All cell lines were grown in culture medium composed of DMEM/Ham’s F12 (1:1; Euroclone) supplemented with fetal calf serum (10%; Euroclone), glutamine (2 mM; Euroclone), and insulin (10 μg/mL; Sigma-Aldrich, St. Louis, MO, United States). All experiments were performed on cells in the exponential growth phase and checked periodically for mycoplasma contamination by MycoAlert^TM Mycoplasma Detection Kit (Lonza, Basel, Switzerland).
Cytotoxicity was assayed using CellTiter 96® AQueous One Solution Cell Proliferation Assay (Promega, Milan, Italy). Cells were seeded onto a 96-well plate at a density of 3 × 10^3 cells per well. Cell lines were exposed to increasing concentrations of the drug, ranging from 0.1 to 100 μM. The effect of the drug was evaluated after 24, 48, and 72 h of continued exposure. Two independent experiments were performed in octuplicate. The OD of treated and untreated cells was determined at a wavelength of 490 nm using a […].
Dose response curves were created by Excel software. IC50 values were determined graphically from the plot.

[2] = tested on: Capan-1; experiment: TUNEL assay; type: cell-based; details: Capan-1, RC-106 50 μM, 48 h
Method: (§1) TUNEL assay was performed as previously described ([Tesei et al., 2007]). Briefly, cells were fixed in 1% formaldehyde in PBS on ice for 15 min, suspended in 70% ice cold ethanol and stored overnight at […]. Cells were then washed twice in PBS and re-suspended in PBS containing 0.1% Triton X-100 for 5 min at […]. Thereafter, samples were incubated in 50 μL of solution containing TdT and FITC conjugated dUTP deoxynucleotides 1:1 (Roche Diagnostic GmbH, Mannheim, Germany) in a humidified atmosphere for 90 min at 37°C in the dark, washed in PBS, counterstained with propidium iodide (2.5 μg/mL, MP Biomedicals, Verona, Italy) and RNAse (10 kU/mL, Sigma–Aldrich) for 30 min at […] in the dark and analyzed by flow cytometry. Flow cytometric analysis was performed using a FACS Canto flow cytometer (Becton Dickinson, San Diego, CA, United States). Data acquisition and analysis were performed using FACSDiva software (Becton Dickinson). Samples were run in triplicate and 10,000 events were collected for each replicate.

[3] = tested on: Panc-1; experiment: TUNEL assay; type: cell-based; details: Panc-1, RC-106 50 μM, 48 h
Method: as §1

[4] = tested on: Capan-2; experiment: Western Blot of caspase 3 and 9 activation; type: cell-based; details: Capan-2, 48 h, 25 μM
Method: (§2) Western Blot were performed as previously described ([Arienti et al., 2016]). Briefly, Cell proteins were extracted with M-PER (Thermo Fisher Scientific) supplemented with Halt Protease Phosphatase Inhibitor Cocktail (Thermo Fisher Scientific).
(§3) Mini-PROTEANTGX^TM precast gels (4–20% and any kD; BIO-RAD) were run using Mini-PROTEAN Tetra electrophoresis cells and then electroblotted by Trans-Blot Turbo^TM Mini PVDF Transfer Packs (BIORAD). The unoccupied membrane sites were blocked with T-TBS 1X (Tween 0.1%) and 5% non-fat dry milk to prevent non-specific binding of antibodies and probed with specific primary antibodies overnight at 4°C. This was followed by incubation with the respective secondary antibodies. The antibody-antigen complexes were detected with Immun-Star^TM WesternC^TM kit (BIO-RAD).
(§4) The following primary antibodies were used: anti-sigma receptor (S18): sc-22948 (Santa Cruz Biotechnology inc.), anti-TMEM97, anti-caspase-3, and anti-caspase-9. Anti-vinculin (sc-5573) from Santa Cruz Biotechnology and anti-actin from Sigma Aldrich Inc., were used as housekeeping. Quantity One Software was used for analysis.

[5] = tested on: Panc-1; experiment: Western Blot of caspase 3 and 9 activation; type: cell-based; details: Panc-1, 48 h, 25 μM
Method: as §2, §3, §4

[6] = tested on: Capan-2; experiment: Real-Time qRT-PCR of ER stress/UPR marker genes; type: cell-based; details: Capan-2, RC-106 50 μM, higher than untreated cells
Method: Total cellular RNA was extracted using TRIzol reagent (Life technologies) in accordance with manufacturer’s instruction and quantified using the Nanodrop MD-1000 spectrophotometer system. Reverse transcription reactions were performed in 20 μL of nuclease free water containing 400 ng of total RNA using iScript cDNA Synthesis kit (Bio-Rad Laboratories, Hercules, CA). Real-Time PCR was run using 7500 Fast Real-Time PCR system (Applied Biosystems) and TaqMan assays to detect the expression of SIGMAR1, TMEM97, GRP78/BiP, ATF4, and CHOP genes.
Reactions were carried out in triplicate at a final volume of 20 μL containing 40 ng of cDNA template, TaqMan universal PCR Master Mix (2X), and selected TaqMan assays (20X). Samples were maintained at 50°C for 2 min, then at 95°C for 10 min followed by 40 amplification cycles at 95°C for 15 s, and at 60°C for 30 s.
The amount of mRNA was normalized to the endogenous genes GAPDH and HPRT-1.

[7] = tested on: proteasome activity of PANC-1, Capan-1, and Capan-2; experiment: Proteasome activity assay, all cell lines; type: cell-based; details: 20–100 μM, 24 h, all PC cell lines
Method: Cells were seeded in 6-well plates at density of 250 × 10^3 cells/well. Cells were treated with increasing concentration of RC-106 and after 24 h total protein extracts were obtained: cells were washed 2 times with PBS and lysed with 100 μL of lysis buffer (Hepes 5 mM pH 7.5, NaCl 150 mM, Glycerol 10%, Triton X100 1%, MgCl2 1.5 mM, EGTA 5 mM). Protein concentration of samples was quantified using Bradford method. Proteasome activity was quantified as described below. Proteasome solution was composed by 40 μg of proteins, 10 μL of 10X proteasome buffer (Hepes pH 7.5 250 mM, EDTA pH 8.0 5 mM, NP-40 0.5%, SDS 0.01%) and 10 μL of 10 mM proteasome substrate (N-Succinyl-Leu-Leu-Val-Tyr-7-Amido-4-Methylcoumarin, 7.6 mg/mL; Sigma-Aldrich, United States). 100 μL of proteasome solution was loaded in wells of a black 96-well plate. The plate was then incubated at 37°C for 2 h and the fluorescence was measured in a microplate reader (excitation 380 nm, emission 460 nm; BMG-Labtech, Germany).

[8] = tested on: S1R; parameters: method as in Rui et al., 2016; Rossi et al., 2017; details: ref Rui et al., 2016; Rossi et al., 2017; cited from earlier work

**Q.** Which results are given for `C/C(=C\CN1CCC(Cc2ccccc2)CC1)c1ccc2ccccc2c1` [RC-106, (E)-4-benzyl-1-(3-(naphthalen-2-yl)but-2-en-1-yl)piperidine]?
**A.** IC50 [1]: 33 to 57 µM; percentage of apoptotic cells [2]: 78.55%; percentage of apoptotic cells [3]: 53.25%; caspases 3 and 9 cleavage [4]: cleaved; caspases 3 and 9 cleavage [5]: cleaved; increase in expression of CHOP mRNA [6]: 70 fold; proteasome activity [7]: reduce proteasome activity in a dose dependent manner; S1R modulatory profile [8]: S1R antagonist
